“Also recorded” adds a separate entry of the source.
Legend:
[1] = tested on: delayed rectifier (Ik); details: cited from earlier work
[2] = tested on: cardiac repolarization; details: in vivo; cited from earlier work
[3] = tested on: isolated guinea pig hearts; experiment: QT duration and action potential duration in isolated guinea pig hearts, perfused with oxygenated Tyrode's solution
Procedure: The hearts were perfused with an oxygenated Tyrode's solution, containing 0.0; 1.0; 5.0 or 10.0 μM of ketoconazole. QT duration and action potential duration (APD) were measured from cardiac electrodes. APD was measured at 50% (APD-50) and 90% (APD-90). In the table, "N" is the number of hearts, and QT and APD are measured in milliseconds.

[4] = tested on: microsporum canis, trichophyton mentagrophytes, candida tropicalis, candida albicans, and other fungi and bacteria; details: cited from earlier work
[5] = tested on: synthesis of ergosterol; details: fungal cell membranes; cited from earlier work
[6] = tested on: liver; details: cited from earlier work
[7] = tested on: patients; details: human, in vivo; cited from earlier work
[8] = in vivo, po; cited from earlier work
[9] = of 75 cases adequately followed up

SMILES: CC(C)NCC(O)c1ccc(NS(C)(=O)=O)cc1 (stereo not shown) [sotalol]
- block of cellular potassium channel delayed rectifier (Ik) [1]: block a cellular potassium channel called the delayed rectifier (Ik)
- prolongation of cardiac repolarization [2]: cause a prolongation of cardiac repolarization
- torsades de pointes (side effect) [2]: well known side effect

SMILES: C=C[C@H]1C[N@@]2CC[C@H]1C[C@@H]2[C@@H](O)c1ccnc2ccc(OC)cc12 [quinidine]
- block of cellular potassium channel delayed rectifier (Ik) [1]: block a cellular potassium channel called the delayed rectifier (Ik)
- prolongation of cardiac repolarization [2]: cause a prolongation of cardiac repolarization
- torsades de pointes (side effect) [2]: well known side effect

SMILES: CC(=O)N1CCN(c2ccc(OCC3COC(Cn4ccnc4)(c4ccc(Cl)cc4Cl)O3)cc2)CC1 (racemic) [Ketoconazole, 1-acetyl-4-[4-[[2-(2,4-dichlorophenyl)-2-(1H-imidazole-1-ylmethyl)-1,3-dioxolan-4-yl]methoxy]phenyl]piperazine]
- APD-50 ([3]; 1.0 μM, N = 2 hearts, baseline 145 ± 5): 149 ± 1 milliseconds
- APD-90 ([3]; 1.0 μM, N = 2 hearts, baseline 185 ± 10): 195 ± 5 milliseconds
- QT ([3]; 1.0 μM, N = 2 hearts, baseline 230 ± 10): 232 ± 9 milliseconds
- APD-50 ([3]; 5.0 μM, N = 3 hearts, baseline 147 ± 5): 163 ± 5 milliseconds
- APD-90 ([3]; 5.0 μM, N = 3 hearts, baseline 187 ± 9): 221 ± 8 milliseconds
- QT ([3]; 5.0 μM, N = 3 hearts, baseline 233 ± 9): 261 ± 8 milliseconds
- APD-50 ([3]; 10.0 μM, N = 3 hearts, baseline 140 ± 8): 173 ± 2 milliseconds
- APD-90 ([3]; 10.0 μM, N = 3 hearts, baseline 177 ± 14): 233 ± 9 milliseconds
- QT duration and action potential duration (in words) ([3]; isolated guinea pig hearts): increases QT duration and action potential duration
- arrhythmogenic effect (in words) ([3]; isolated guinea pig hearts, listed as racemic ketoconazole): may be associated with an increased risk of cardiac arrhythmia; also recorded: indicative of a potential arrhythmogenic effect
- effect of 10% inactivated bovine serum on antifungal activity ([4]; Sabouraud broth containing 10% inactivated bovine serum): enhanced
- inhibition of growth ([4]; Sabouraud broth, 14 days of incubation): Complete or marked inhibition of growth
- synthesis of ergosterol [5]: impairs the synthesis of ergosterol
- reports of hepatotoxicity ([6]; 1981-1984, United Kingdom): 82 reports
- time for liver function tests to return to normal after treatment was stopped (average) ([6]; average): 3.1 months
- hepatocellular injury suggested by serum liver function tests ([6]; in vivo): 10 of the 16
- deaths among the cases probably related to treatment ([6]; of 16 cases): 3 deaths
- cases possibly related to treatment [6, 9]: 48 cases
- cases probably related to treatment [6, 9]: 16 cases
- deaths among the reports of hepatotoxicity ([6]; of 82 reports): 5 deaths
- gastrointestinal side effects, occurrence in patients [7]: 5-10 % of patients
- torsades de pointes [7]: torsades de pointes, has been reported
- major route of excretion [8]: via the bile into the intestinal tract
- metabolism [8]: eventually metabolized to several inactive metabolites
- serum concentration [8]: a linear increase in serum concentration

SMILES: CCN(CC)CCNC(=O)c1ccc(NC(C)=O)cc1 [acetyl-procainamide]
- block of cellular potassium channel delayed rectifier (Ik) [1]: block a cellular potassium channel called the delayed rectifier (Ik)
- prolongation of cardiac repolarization [2]: cause a prolongation of cardiac repolarization
- torsades de pointes (side effect) [2]: well known side effect

From patent US6040307A, “Methods ad compositions of (-) ketoconazole for treating fungal yeast and dermatophyte infections” (priority 1999, dated 2000)
